For assay [1], the target named is T1, human LIAS (lipoyl synthase) (Homo sapiens, UniProt O43766).
T1 construct: residues 65-372, N-terminal His6-tag with 10-aa linker kept (pET-28a), E. coli BL21(DE3) with pDB1282; two [Fe4S4] clusters; monomeric in asymmetric unit of 8TRW
T1 sequence (O43766 65-372): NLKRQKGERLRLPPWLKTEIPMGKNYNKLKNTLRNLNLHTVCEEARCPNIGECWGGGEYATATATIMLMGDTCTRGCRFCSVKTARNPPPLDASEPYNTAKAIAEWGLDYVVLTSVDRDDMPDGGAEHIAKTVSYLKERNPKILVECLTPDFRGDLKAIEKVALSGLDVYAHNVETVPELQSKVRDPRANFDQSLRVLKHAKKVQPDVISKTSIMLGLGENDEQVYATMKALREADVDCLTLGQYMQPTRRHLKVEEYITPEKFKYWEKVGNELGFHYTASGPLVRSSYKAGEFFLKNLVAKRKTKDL
As to the kind of experiment: X-ray crystal structure, […] Å. Type of assay: binding. Particulars: co-crystallised with 5'-dAH and OCT-8mer, anaerobic; bidentate to unique Fe of radical SAM [Fe4S4] cluster.

Assay [2] has as its target T2, truncated human lipoyl synthase (LIAS isoform 1, aa 65–372) (human).
T2 construct: lipoyl synthase (LIAS), human, isoform 1, residues 65-372; Holds two [Fe4S4] clusters (RS and auxiliary); in the complex with Hpro the auxiliary cluster is [Fe3S3:1 mercaptooctanoyllysyl]; also called human LIAS; trnLIAS; source: E. coli BL21 (DE3) co-transformed with pDB1282, purified anaerobically (Ni-NTA, size-exclusion S-200); not shown: His6 (separated from the protein by a ten aa linker), …
T2 chain: T1 sequence (O43766 65-372)
Put plainly: crystal structure; LIAS (8 mg/ml) co-crystallised with 2.5 mM L-Met, 1 mM 5’-dAH and a 1.3x molar ratio of OCT-8mer; anaerobic, hanging drop, 0.1 M HEPES pH 7.5, 0.2 M Na2SO4, 30% PEG 3350, 3% trehalose. Particulars: both partners purified.

Ends that are not written are not given here. * marks the point of attachment. Octanoyl = CCCCCCCC(=O)*

Turning to `CSCC[C@H](N)C(=O)O` [Met, methionine], the “X-ray crystal structure, 1.58 Å” value in assay [1] is “The oxygen and nitrogen atoms of Met are coordinated to the unique iron”.

B1: octanoyl-containing eight amino acid peptide substrate mimic, Glu-Ser-Val-(N6-octanoyl)Lys-Ala-Ala-Ser-Asp (peptide)
peptide: ESVK(Octanoyl)AASD
notes: printed in three-letter code; human Hpro 104-111 is ESVKAASE; also called OCT-8mer; OCT-8-mer; source: synthetic peptide, custom-synthesized by Proimmune (Oxford, UK)
B1: the binding result in assay [2] was “binds”.
